# Laboratory results taken from paper PMC5068747, “Using C. elegans Forward and Reverse Genetics to Identify New Compounds with Anthelmintic Activity” (PLoS Neglected Tropical Diseases, 2016).
# How the values were obtained:
# [1] = system: C. briggsae; assay: Dosage curve on C. briggsae; assay type: in vivo; settings: Caenorhabditis briggsae, 120 h; two L4 per well, five days of exposure
# Description: Supplementary file pntd.0005058.s004.pdf: S4 Fig Dosage curve for effects on C. briggsae of CID 2747322. Two L4 C. briggsae animals were placed into each well of a 96-well pate for five days of exposure to CID 2747322. […] (PDF) Click here for additional data file.
# [2] = system: C. elegans DA1316 (avr-14(ad1302); avr-15(vu227); glc-1(pk54), ivermectin resistant); assay: IC50 on ivermectin resistant C. elegans strain; assay type: in vivo, Caenorhabditis elegans; settings: Caenorhabditis elegans, 120 h; 5 days exposure, 2 L4 per well, three biological replicates
# [3] = system: C. elegans VC3635 (pink-1 gk3615, D19 resistant); assay: IC50 on CID 2747322 resistant C. elegans strain VC3635; assay type: in vivo, Caenorhabditis elegans; settings: Caenorhabditis elegans, 120 h; 5 days exposure, 2 L4 per well, three biological replicates
# Method: All compound libraries were stored in 96-well plates, with 80 drugs per plate (columns 1 and 12 left empty). A BioGrid BG600 pinning robot (Digilab / BioRobotics) was used for compound transfer. The robot uses a 96-pin tool (0.7 mm dia.) to transfer a nominal volume of 340 nL of compound. For retesting, compounds were hand pinned from the original library plates to assay plates using a single 0.7 mm dia. pin. The assay plates were 96-well clear flat-bottom microplates containing 2% χ1666 E.coli bacteria in 0.5X Liquid Nematode Growth Media (LNGM) plus cholesterol (Bacteria were mass-grown in rich media, and harvested by centrifugation to produce a thick paste of bacterial cells that was kept frozen at -20°C. Cells were resuspended at 2% W/V in 0.5X LNGM to produce liquid worm food). Using a COPAS Biosort (Union Biometrica), two L4 to young adult stage VC2010 worms were added to each well of the plate in a final volume of 45 μL. After five days of exposure to the compounds, the plates were scanned and the data analyzed. A five day time period was chosen to be able to observe effects over all stages of the life cycle and through at least one round of replication. The initial proof-of-principle primary screen was performed manually using a dissecting microscope. Phenotypes scored included decreased motility, reduced brood size, and/or death as described previously. For high throughput screening of the Chembridge and Maybridge compound libraries we used the program WormScan, which was adapted for screening 96-well flat-bottom LNGM plates. Using WormScan it was possible to screen four 96-well plates at a time. Plates were scanned twice, at a resolution of 1200 dots per inch, 16-bit grayscale, producing a jpeg image. The light intensity produced by the scanner was sufficient to cause negative phototaxis equivalent to a physical stimulus for mortality determination. The time required to scan four 96-well plates using an Epson Perfection V700 Photo Scanner was less than ten minutes. The time to screen a single plate was less than 1.2 minutes, with less than ten seconds between scans.
# WormScan was used to screen for the same phenotypes as in the manual screen (reduced brood size, reduced behavior/motility response and increased mortality). Two sequential scans for each 96-well plate were aligned to a reference region of interest (ROI). Image analysis was based on a difference image score calculated for each ROI. The difference image score (WormScan score) was normalized using a “percent of control” method to derive a normalized WormScan score. […] Wild-type growth in 1% DMSO (Fig 1A) results in a normalized WormScan score of 100. Exposure to 50 nM ivermectin gives a score of 0 (Fig 1C), and complete absence of worms gives a score of 0 (Fig 1D). For the primary screen the WormScan score was calculated using custom macro scripts written for Fiji. For secondary screening and any subsequent studies the WormScan score was calculated using a standalone Java program (See supplemental). Probit regression of mortality was calculated using Mathematica 8.0.
# A standard ethyl methanesulfonate (EMS) mutagenesis protocol was carried out using VC2010 in order to generate mutants resistant to CID 2747322 exposure. First larval stage (L1) F2 progeny of mutagenized P0s were exposed to CID 2747322 at 200 μM in liquid worm food in 24-well tissue culture plates for five days at room temperature, and two independently isolated resistant lines (VC3614 and VC3615) were identified. […]
# [4] = system: Human embryonic kidney (HEK293) cells; assay: HEK293 viability, MTT colorimetric assay; assay type: cell-based; settings: Homo sapiens, read-out: Mammalian IC50
# Method: Potential anthelmintic compounds identified from primary screening were further tested against mammalian cells and yeast to determine whether they had deleterious effects in those organisms. Human embryonic kidney (HEK293) cells were grown in Dulbecco’s Modified Eagle’s Medium (DMEM; Sigma) containing 5% fetal bovine serum (FBS; Sigma) in 96-well plates tissue culture plates. Compounds were added 24h post-plating at 10, 30, 100, or 300 μM final concentrations. Dimethyl sulfoxide (DMSO) was used as a negative control at 0.1%. Cells were treated for 24 or 48 hours, after which time viability was assessed using a 3-(4,5-dimethylthiazol-2-yl)-2,5-diphenyltetrazolium bromide (MTT) colorimetric assay. Percent viability was determined by comparing treatment values to DMSO control values.
# [5] = system: C. elegans VC2010; assay: Manual inspection of growth, brood size, developmental stage and recovery of C. elegans in drug; assay type: in vivo, Caenorhabditis elegans
# Method: WormScan is a powerful tool to identify compounds with potential effects on the nematode, but it is still necessary to do manual inspection of wells with few animals to determine details of growth, behavior and fecundity. Wild-type worms grown in 90 μM CID 2747322 have brood sizes reduced by 97%. […] All current classes of anthelmintic have greater specificity towards certain life-stages. It is interesting that when removed from the drug L1s will recover and develop, and generally become fertile adults (See S3 Fig).
# Supplementary file pntd.0005058.s002.tiff: S2 Fig Developmental stage of inhibition in C. elegans after CID 2747322 exposure. Ten VC2010 L1 stage C. elegans were sorted into a DMSO control well or 90 μM of CID 2747322. Nematodes were removed from the DMSO control or CID 2747322 after 24/48/72 hours and allowed to recover for 30 minutes on standard agar plates. (TIFF) Click here for additional data file.
# Supplementary file pntd.0005058.s003.tiff: S3 Fig Development of C. elegans after removel from CID 2747322. Greater than 50 VC2010 L1 stage C. elegans were sorted into a DMSO control well or 90 μM of CID 2747322. Nematodes were removed from DMSO control or CID 2747322 after 2 days of exposure and left to recovery for 24/48/72 hours. (TIFF) Click here for additional data file.
# [6] = system: C. elegans CB3474 (ben-1(e1880), benomyl resistant); assay: IC50 on benzimidazole resistant C. elegans strain; assay type: in vivo, Caenorhabditis elegans; settings: Caenorhabditis elegans, 120 h; 5 days exposure, 2 L4 per well, three biological replicates
structure (smiles),measurement,setting,value
"COc1ccc(OCCNC(=O)c2ccccc2C(F)(F)F)cc1 [CID 2747322, N-[2-(4-methoxyphenoxy)ethyl]-2-(trifluoromethyl)benzamide]",IC50,[1],16 µM
same,IC50,[2],16 µM
same,IC50,[3],> 500 µM
same,IC50,[4],171 µM
same,developmental stage of inhibition,"[5]; 90 μM, while maintained in drug",arrest at the first larval stage (L1)
same,outcome after exposure / removal from drug,[5]; L1s removed from the drug,reversible inhibition
same,brood sizes reduced,[5]; wild-type worms grown in 90 μM,97%
same,IC50,[6],4 µM
